Experiment: complex formation with iron ions in sun protection formulation, colour measurement (Minolta Chroma-Meter CR 300)
Conditions: formulation + 0.01% iron (III) chloride hexahydrate + 0.09% additive, after 6 weeks
Description: As a base formulation, the formulation of a sun protection agent with butyl methoxy dibenzoylmethane was used. This UVA filter forms an intensive red complex with traces of irons The complexing effect was studied using the following formulation:
The aqueous phase of the formulation was prepared by dissolving Phase B in Phase A until a homogeneous phase resulted. This was brought to a temperature of ca. 75-80° C. Phase C was prepared by dissolving Cosmedia Gel CC in the rest of Phase C until a homogeneous phase resulted. This was heated to ca. 75-80° C., followed by addition of phase D, and then Phase E was stirred in. The mixture of phases C, D, and E was added to the aqueous phase, and this mixture was stirred 5 min at 750 rpm. Then the formulation was cooled to room temperature while stirring at 200 rpm, during which at ca. 60° C. the mixture was homogenised 1 min at 11000 rpm with the aid of an Ultra Turrax stirrer.
The following additives were added to the described formulation:
The respective amount of iron (III) chloride hexahydrate, Carephos N (linear alkali polyphosphate), disodium EDTA, Utanit AF (acid diphosphate, for comparison), and [sic] Phoskadent Pyro (alkali diphosphate, for comparison) was worked into the aqueous phase and was removed from the water content [sic].
The evaluation was carried out by colour measurement. Using a Minolta Chroma-Meter CR 300, the colour status of the formulas was determined after 6 weeks. The measurements yielded values which allowed an objective comparison of the individual formulations. The measurements determined 3 values: L, a, and b. The L value describes lightness and darkness, with 0 representing perfect black and 100 perfect white. The a value describes the red-green value, and the b value describes the yellow-blue value. There are different prefix signs on the a and b values, in accordance with the present CIE Lab system, according to which no colour can be simultaneously reddish and greenish or simultaneously yellowish and bluish. Thus, −a represents green, +a represents red, −b represents blue, and +b represents yellow. […]

O=C([O-])CN(CCN(CC(=O)[O-])CC(=O)O)CC(=O)O.[Na+].[Na+] [Disodium EDTA]
L value (difference to white standard): −26.44
a value (red-green; difference to white standard): +5.18
b value (yellow-blue; difference to white standard): +4.10

Source: patent US20130189203A1, “COSMETIC ADDITIVES CONTAINING ALKALI PHOSPHATES” (BK Giulini GmbH, priority 2012, published 2013)
